Data from publication PMC7699461, “Alpha-Glucosidase and Alpha-Amylase Inhibitory Activities, Molecular Docking, and Antioxidant Capacities of Salvia aurita Constituents” (Antioxidants, 2020).

Assays:
[1] = target: T1, alpha-glucosidase (Saccharomyces cerevisiae) (Saccharomyces cerevisiae, UniProt P53341); assay: biochemical
T1 construct: purchased Sigma-Aldrich, Cape Town, South Africa
Excerpt: (§1) EGCG (epigallocatechin gallate), Trolox (6-hydroxyl-2,5,7,8-tetramethylchroman-2-carboxylic acid), and other reagents such as TPTZ (2,4,6-tri[2-pyridyl]-s-triazine, iron (III) chloride hexahydrate, ABTS (2,2-azino-bis (3-ethylbenzo thiazoline-6-sulfonic acid) diammonium salt), AAPH (2,2-Azobis (2-methylpropionamidine) dihydrochloride), fluorescein sodium salt, potassium peroxodisulfate, copper sulfate, hydrogen peroxide, perchloric acid, alpha-glucosidase (Saccharomyces cerevisiae), alpha-amylase ([…]), and 3,5,di-nitro salicylic acid (DNS), sodium carbonate (Na2CO3), 4-nitro-phenyl-α-D-glucopyranoside (pNPG), di-sodium hydrogen phosphate, and sodium dihydrogen phosphate purchased from Sigma-Aldrich, Cape Town, South Africa. The organic solvents used in this study were supplied by Merck, Cape Town, South Africa. The NMR spectra were carried out on an Avance 400 MHz spectrometer (Bruker, Rheinstetten, Germany) using deuterated chloroform. Preparative HPLC was utilized for the purification of compounds using HPLC-grade methanol and distilled water.
Briefly, 20 μL of 5 mM substrate ([…]) was added to each well and left to incubate for 20 min at 37 °C. The reacting mixture was stopped after incubation by adding 0.1 M sodium carbonate (50 μL). The release of p-nitrophenol of the reacting mixture relating to the activity of the enzyme was read at a wavelength of 405 nm using a multiplate reader (Multiskan, Thermo Scientific).
All the measurements were repeated three times, and the IC50 was calculated using GraphPad Prism 5 version 5.01 (Graph pad software, Inc., La Jolla, CA, USA) statistical software. The data presented are means ± SD obtained from 96-well-plate readers for all in vitro experiments.

[2] = target: T2, alpha-amylase (procaine pancreas) (Sus scrofa, UniProt P00690); assay: Alpha-amylase inhibitory activity (starch/DNS); assay type: biochemical; settings: mean ± SD, n = 3; samples 100–31.2 μg/mL; NA: not active within the evaluated concentrations
T2 construct: purchased Sigma-Aldrich, Cape Town, South Africa
T2 sequence (P00690 16-511): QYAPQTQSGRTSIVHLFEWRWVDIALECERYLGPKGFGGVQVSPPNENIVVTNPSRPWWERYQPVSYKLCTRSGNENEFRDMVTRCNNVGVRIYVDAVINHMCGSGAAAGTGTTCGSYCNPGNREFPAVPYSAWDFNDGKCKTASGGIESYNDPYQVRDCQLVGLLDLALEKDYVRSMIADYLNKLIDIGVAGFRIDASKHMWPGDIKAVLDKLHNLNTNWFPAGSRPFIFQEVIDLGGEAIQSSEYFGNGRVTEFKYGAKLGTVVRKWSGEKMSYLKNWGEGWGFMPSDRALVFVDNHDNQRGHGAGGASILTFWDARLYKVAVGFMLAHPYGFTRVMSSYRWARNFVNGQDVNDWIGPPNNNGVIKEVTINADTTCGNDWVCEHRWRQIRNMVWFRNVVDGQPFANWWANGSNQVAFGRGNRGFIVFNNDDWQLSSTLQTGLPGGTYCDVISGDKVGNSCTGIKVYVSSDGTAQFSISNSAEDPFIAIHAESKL
Excerpt: as §1
The mixture was allowed to incubate for 20 min at 37 °C before the addition of 1% soluble starch (10 μL) and further incubated for another 30 min. A color reagent DNS (100 μL) was added and boiled at 95 °C for 15 min. The change in color was read at a wavelength of […] using a multiplate reader.
The data presented are means ± SD obtained from 96-well-plate readers for all in vitro experiments.

[3] = Oxygen radical absorbance capacity (ORAC) assay; settings: Trolox equivalent; mean ± SD of triplicate
Excerpt: The method of Cao and Prior (1998) was employed to measure oxygen radical absorbance capacity (ORAC) and as reported in our previous study. The method measures the scavenging potential of compounds against the decomposition of peroxyl radical of 2,2-azobis (2-amino-propane) dihydrochloride (AAPH) as peroxyradical (ORAC ROO^•). The antioxidant capacity of a compound is a measure of the fading fluorescence of a probe (fluorescein) using the area under the curve (AUC) plot in relation to a control blank. The florescence of the probe was programmed to be measured at every two minutes for 2 h after the addition of AAPH at the excitation wavelength and emission set at 485 and 530 nm, respectively. The ORAC results were estimated following a regression equation (Y = a + bX + Cx^2) between Trolox concentration (Y in μM) and the net area under the fluorescence decay curve (X). ORAC values were expressed as μM Trolox equivalent (TE)/mg of test sample.

[4] = Trolox equivalent absorbance capacity (TEAC) assay; settings: mean ± SD of triplicate
Procedure: The TEAC assay was evaluated following the method of Pellegrini et al. (1999). The working solution containing 88 µL of K2S2O8 (140 mM) and 5 mL ABTS (7 mM) was kept for at least 16 h in the dark at 25 °C. The working solution was then diluted after 16 h with ethanol until the absorbance read approximately 2.0 (±0.1). The extract, purified compounds, or standard (25 µL) was mixed with 300 µL working solution and allowed to incubate in the dark for 30 min at room temperature. Trolox was used as the standard using a concentration range between 0 and 500 µM. The absorbance of the reaction was read at a wavelength of 734 nm using a multiplate reader.

[5] = Ferric-ion reducing antioxidant power (FRAP) assay; settings: ascorbic acid equivalent; mean ± SD of triplicate
Procedure: The FRAP assay was assessed according to the method of Benzie and Strain (1996). FRAP reagent containing the mixture of acetate buffer (300 mM, pH 3.6), tripyridyl triazine (TPTZ) (10 mM in 40 mM HCl), and 20 mM FeCl3.6H2O in ratio 10:1:1 (v/v/v) was used. Extract, compounds, or standard (10 µL) was added to 300 µL FRAP reagent, incubated for 30 min in the dark at room temperature. The reacting mixture was read at a wavelength of 593 nm in a multiplate reader. Ascorbic acid was used as standard at varying concentrations of 0 to 1000 µM. The result was presented as a mean of independent triplicate experiments and expressed as µM ascorbic acid equivalents per milligram dry weight (µM AAE/g) of the test samples.

[6] = target: rat liver diacylglycerol acyltransferase 1 (DGAT1); parameters: method as in PMID 28034282; settings: read-out: IC50 against rat liver DGAT1; cited from earlier work
[7] = system: intracellular de novo triglyceride synthesis; parameters: method as in PMID 28034282; settings: without affecting cell viability; cited from earlier work

T1 sequence (P53341 whole entry): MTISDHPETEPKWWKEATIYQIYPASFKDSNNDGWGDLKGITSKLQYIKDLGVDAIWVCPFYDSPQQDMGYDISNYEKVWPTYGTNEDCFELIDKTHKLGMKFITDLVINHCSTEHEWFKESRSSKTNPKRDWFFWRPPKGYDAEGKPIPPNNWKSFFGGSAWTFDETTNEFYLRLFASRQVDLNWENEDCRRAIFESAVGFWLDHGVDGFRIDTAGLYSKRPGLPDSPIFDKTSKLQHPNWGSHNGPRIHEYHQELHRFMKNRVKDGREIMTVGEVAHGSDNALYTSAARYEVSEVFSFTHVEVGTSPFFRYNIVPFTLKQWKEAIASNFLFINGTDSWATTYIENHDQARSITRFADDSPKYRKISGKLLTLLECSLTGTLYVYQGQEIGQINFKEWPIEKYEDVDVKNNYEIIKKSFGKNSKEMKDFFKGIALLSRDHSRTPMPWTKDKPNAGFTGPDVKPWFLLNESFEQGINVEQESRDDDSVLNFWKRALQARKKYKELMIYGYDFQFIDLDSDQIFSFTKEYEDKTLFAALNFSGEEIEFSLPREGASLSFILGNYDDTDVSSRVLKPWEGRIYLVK

Row | SMILES | IC50 [1] [µM] | IC50 [2] [µM] | ORAC [3] [mM TE/g] | TEAC [4] [mM TE/g] | FRAP [5] [mM AAE/g] | IC50 [6] [µM] | deactivation of intracellular de novo triglyceride synthesis [7]
1 | COc1c(C(C)C)cc2c(c1O)[C@@]1(C(=O)O)CCCC(C)(C)[C@@H]1CC2 [12-methoxycarnosic acid] | 107 | 46.8 | 20.25 ± 0.01 | 0.34 ± 0.003 | 0.51 ± 0.003 |  | 
2 | COc1ccc(-c2cc(=O)c3c(O)cc(OC)cc3o2)cc1 [4,7-dimethylapigenin ether, 4,7-dimethylapigenin] | 96.2 |  | 6.47 ± 0.01 | 3.19 ± 0.003 | 0.61 ± 0.006 |  | 
3 | O=C(O[C@@H]1Cc2c(O)cc(O)cc2O[C@@H]1c1cc(O)c(O)c(O)c1)c1cc(O)c(O)c(O)c1 [EGCG, epigallocatechin gallate, reference compound] |  |  | 3.98 ± 0.00 | 4.15 ± 0.02 | 7.53 ± 0.005 |  | 

Now from value to molecule, other results behind:

Row | IC50 [1] [µM] | IC50 [2] [µM] | SMILES | ORAC [3] [mM TE/g] | TEAC [4] [mM TE/g] | FRAP [5] [mM AAE/g] | IC50 [6] [µM] | deactivation of intracellular de novo triglyceride synthesis [7]
4 | 157 | 59.9 | CC(C)c1cc2c(c(O)c1O)[C@@]13CCCC(C)(C)[C@@H]1C[C@@H]2OC3=O [Carnosol, carnosol] | 23.96 ± 0.01 | 0.33 ± 0.002 | 3.92 ± 0.002 | 62.5 | 67.5–90.6%
5 | 47.3 | 118 | CC(C)c1cc2c(c(O)c1O)[C@@]13CCCC(C)(C)[C@@H]1[C@H](OC3=O)[C@H]2O [Rosmanol, rosmanol] | 25.79 ± 0.01 | 2.06 ± 0.003 | 1.52 ± 0.002 |  | 
